{"source": "patent US11612583B2", "about": "“Disease modifying methods for treating neurodegenerative diseases using nootropic agents” (priority 2018, dated 2023)", "key": {"[1]": {"tested_on": "primary cortical neurons treated with rotenone", "test": "Dendrite length analysis (MAP2B immunostaining)", "assay_type": "cell-based, mouse", "conditions": "after rotenone 65 nM; Forskolin/NKH477 6.5 μM-8.5 μM or 250 μM dbt-cAMP; FIG. 5"}, "[2]": {"tested_on": "primary cortical neurons treated with rotenone", "test": "Image-based analysis of mitochondrial content in dendrites (MAP2B/TOM20 immunostaining)", "assay_type": "cell-based, mouse", "conditions": "after rotenone 65 nM; Forskolin/NKH477 6.5 μM-8.5 μM or 250 μM dbt-cAMP; FIG. 4", "excerpt": "The rotenone-treated neurons were also studied by image-based analyses of mitochondrial content in dendrites from primary cortical neurons immunostained for dendrites (MAP2B) and for mitochondria (TOM20)."}, "[3]": {"tested_on": "primary cortical neurons treated with rotenone", "test": "Oxygen consumption rates (XF24e Extracellular Flux Analyzer) in rotenone-treated primary cortical neurons", "assay_type": "cell-based, mouse", "protocol": "Rotenone (1.26 mM stock, Sigma, Cat #R8875) was freshly prepared in water prior to each use. Stocks of rotenone were maintained in the dark at −20° C. for up to 6 months. Rotenone was used at 65 μM for neuroblastoma cells and at 65 nM for primary cortical neurons for 4-6 hours to induce oxidative and autophagic stress.\nForskolin (Coleus forskohlii, >98% HPLC, Sigma Aldrich) was prepared in DMSO as 5 mg/ml stocks (stable for up to 6 months if kept in the dark and stored in −20° C. until ready to use). On the day of the experiment, the forskolin aliquot was thawed and cells were treated once with forskolin at a concentration of 1 to up to 10 μM of forskolin in complete media for treating primary cortical neurons or for intraperitoneal administration of PINK1 knockout mice or PINK1 knockout rats.\nRotenone-treated primary neurons were then exposed to 250 μM dibutyryl cyclic AMP (dbt-cAMP) or with the parental or water-soluble form (NKH477) of Forskolin (6.5 μM-8.5 μM, 24 hrs). The basal oxygen consumption rates (OCRs), a proxy for mitochondrial function, were analyzed by using an XF24^e Extracellular Flux Analyzer (Agilent Technologies). The maximal oxygen consumption rates (OCRs), a proxy for maximal buffering capacity of mitochondrial function, were also analyzed by using an XF24^e Extracellular Flux Analyzer in primary cortical neurons treated with 1 μM FCCP, an ionophore that acts as a mitochondrial uncoupler."}, "[4]": {"tested_on": "PINK1-KO rats", "test": "Hind limb grip strength in PINK1-KO rats", "assay_type": "in vivo, rat", "conditions": "intraperitoneal Forskolin 1.6 mg/kg with or without Noopept 0.05 μg/kg; 10 days; post vs pre-treatment; FIG. 11", "protocol": "All experiments involving mice and rats were performed in accord with ARRIVE (Animal Research: Reporting of In Vivo Experiments) guidelines. Wild-type C57BL/6 and PINK1 knockout mice (B6.129S4-Pink1^tm1Slm/J), wild-type (Long Evans rats) and PINK1 knockout (LEH-PINK1^tm1sage.Park6) rats (SAGE labs through Horizon Discovery) were handled humanely and appropriately per the ARRIVE guidelines. All mice were housed at the Laboratory of Animal Resources (University of Nevada, Reno) in cages containing sufficient bedding, food (pellets), water, with sufficient social, nutritional and “enriched” environments, and maintained in HVAC-pressurized/sterile environment and in 12:12 hr light/dark cycles.\nWild-type (PINK1+/+) or PINK1 knockout (PINK1−/−) rats were treated with intraperitoneal injections of DMSO control or of Forskolin (1.6 mg/kg body weight) once every 2 days for two doses followed by co-administration with Noopept (0.05 μg/kg) for three more doses (once every two days) for up to a total treatment time of 10 days. […] In addition, muscle coordination and balance were assessed by subjecting the rats to cross a 1-meter, tapered beam balance (2 cm width) for up to three trials per animal. […]"}, "[5]": {"tested_on": "Protein Kinase A (PKA)", "test": "PKA activity in cortex lysates after intranasal administration (ELISA-based colorimetric kit)", "assay_type": "in vivo, wild-type Long Evans Hooded rats", "conditions": "for blood brain barrier crossing: intranasal formulation, inferred from increased cortical PKA activity within 24 hrs; for PKA activity in the cortex: intranasal, 6 μl per nostril, 24 hr, 2.5 and 10 μM in cerebrospinal fluid, vs 0 μM, FIG. 14", "protocol": "PKA activity was measured in cortex of wild-type Long Evans Hooded rats by determining the level of PKA-mediated substrate phosphorylation by using an ELISA-based colorimetric PKA activity kit per manufacturer's recommendations (Enzo Life Sciences; ADI-EKS-390A) with the following minor modifications. To determine PKA-specific activity, lysates form the cortex were treated with H89, a pharmacological inhibitor of PKA at 10 μM for 5 min, and the H89-resistant kinase activity was subtracted from total kinase activity of untreated tissue lysates.\nCombine 1.68 grams K2HPO4 ([…]), 5.28 grams KH2PO4 ([…]), and 81.8 grams NaCl ([…]). Add distilled H2O up to 1 L total volume. Autoclave and sterilize solution. Adjust the pH of the solution to 7.4 using a pH meter. Add 1 gram sodium benzoate (0.1%) or propyl benzoic acid. Reconstitute up to 2 mg of lyophilized, sterile, pharmaceutical grade water-soluble Forskolin analogue, for example water soluble analogue NKH477, in 1 mL of PBS by using a 1 mL syringe. Transfer the reconstituted Forskolin onto the receiving chamber of an intranasal atomizer (NAD nasal) prior to intranasal delivery.\n(*:p<0.05 vs. 0 μM, One-Way ANOVA, Tukey's test, N=3 rats per group)."}}, "note": "“Also recorded” adds a separate entry of the source."}
{"smiles": "C=C[C@@]1(C)CC(=O)[C@]2(O)[C@@]3(C)[C@@H](O)CCC(C)(C)[C@@H]3[C@H](O)[C@H](OC(C)=O)[C@@]2(C)O1", "note": "[Forskolin]", "values": [{"measurement": "dendrite arbors (total dendrite length per neuron)", "setting": "[1]", "result": "reversed the loss of dendrites; also recorded: completely blocked; also recorded: significantly restored"}, {"measurement": "mitochondrial content in dendrites (% of dendrites occupied by mitochondria)", "setting": "[2]", "result": "reversed the loss of mitochondria within dendrites; also recorded: completely blocked; also recorded: significantly restored"}, {"measurement": "spare respiratory capacity (Maximal OCRs-Baseline OCRs)", "setting": "[3]; after rotenone 65 nM 24 hours, 6.5 μM-8.5 μM, 24 hrs, 1 μM FCCP, FIG. 2", "result": "completely restored; also recorded: significantly restored"}, {"measurement": "baseline mitochondrial respiration (basal OCRs)", "setting": "[3]; after rotenone 65 nM 24 hours, Forskolin or NKH477 6.5 μM-8.5 μM, 24 hrs, FIG. 1", "result": "partially or completely restored; also recorded: significantly restored"}, {"measurement": "protection against rotenone-mediated neurodegeneration", "setting": "[3]; concentrations of Forskolin greater than 12.5 μM", "result": "did not confer significant protection"}, {"measurement": "concentration of maximal effects on protection against loss of neuronal metabolism (oxidative phosphorylation and glycolysis)", "setting": "[3]; rotenone-treated primary neurons, bimodal", "result": "about 10 μM"}, {"measurement": "hind limb muscle strength", "setting": "[4]", "result": "can reverse the loss of hind limb strength; also recorded: can reverse the loss of muscle strength"}, {"measurement": "blood brain barrier crossing", "setting": "[5]", "result": "can efficiently cross the blood brain barrier; also recorded: efficiently crosses the blood brain barrier"}, {"measurement": "blood brain barrier crossing", "setting": "[5]; listed as forskolin", "result": "crosses the blood brain barrier efficiently"}, {"measurement": "PKA activity in the cortex", "setting": "[5]", "result": "significantly increases PKA activity"}, {"measurement": "PKA activity in the cortex", "setting": "[5]; listed as forskolin", "result": "enhances neuroprotective PKA activity"}]}
